Measured values: patent publication US20230192617A1, “AZABICYCLIC(THIO)AMIDES AS FUNGICIDAL COMPOUNDS” (Bayer CropScience Aktiengesellschaft, priority 2020, published 2023)

Legend:
Botrytis cinerea [1] = test: In vivo preventive test on Botrytis cinerea (grey mould); details: 500 ppm of active ingredient, preventive spray on gherkin or cabbage, evaluated 4 to 5 days after inoculation, read-out: efficacy
How it was run: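 Preventive spray on cabbage or gherkin seedlings, with compound formulated in DMSO/acetone/Tween 80 and water-diluted, preceded spore inoculation by 24 hours. Cabbage was held 4 to 5 days at 20° C., 100% relative humidity; gherkin 4 to 5 days at 17° C., 90% relative humidity.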

Pyrenophora teres [2] = test: In vivo preventive test on Pyrenophora teres (net blotch on barley); details: 240 h, 500 ppm of active ingredient, preventive spray on barley, evaluated 10 days after inoculation, read-out: efficacy
How it was run: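 Net blotch spores were sprayed onto barley leaves one day after foliar treatment with water-diluted DMSO/acetone/Tween 80 formulations (solvent-only controls). Plants were kept at 20° C: first 48 hours at 100% relative humidity, then 8 days at 70-80%.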

[3] = tested on: Colletotrichum lindemuthianum; test: In vivo preventive test on Colletotrichum lindemuthianum (leaf spot on bean); details: 168 h, 500 ppm of active ingredient, preventive spray on bean, evaluated 7 days after inoculation, read-out: efficacy
How it was run: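 Young bean plants sprayed with compound in DMSO/acetone/Tween 80 diluted in water; solvent-only controls. Inoculated 24 h later with C. lindemuthianum spore suspension, then kept 24 h at 20 °C/100% RH and 6 days at 20 °C/90% RH.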

Alternaria alternata = Alternaria alternata in vitro cell test; type: cell-based; details: 120 h, 20 ppm of active ingredient, liquid culture, 5 days incubation, spectrometric measurement of mycelium growth, read-out: efficacy (inhibition of fungal growth)
How it was run: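 Spectrometric readout of mycelial growth after 5-day incubation gauged compound effects on spore germination and growth of A. alternata in liquid medium. Compounds were delivered in DMSO at ≤1% final. Absorbance was compared with untreated controls to give inhibition.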

[4] = tested on: Colletotrichum lindemuthianum; test: B-8. Colletotrichum lindemuthianum in vitro cell test; type: cell-based; details: 144 h, 20 ppm of active ingredient, 6 days incubation, liquid culture, absorbance, read-out: efficacy (inhibition of fungal growth)
How it was run: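 Liquid-culture germination/growth test: compounds in ≤1% final DMSO were added to spore-containing medium. Fungal growth was quantified spectrophotometrically after 6 days of incubation and expressed as inhibition versus untreated controls.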

Septoria tritici = test: B-9. Septoria tritici in vitro cell test; type: cell-based; details: Zymoseptoria tritici, 168 h; 20 ppm of active ingredient; 7 days incubation; liquid culture, absorbance; read-out: efficacy (inhibition of fungal growth)
How it was run: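 Compounds from DMSO stocks (final DMSO ≤1%) were added to liquid medium containing S. tritici spores to test inhibition of germination and mycelial growth. After 7 days, mycelium growth was read spectrometrically and inhibition derived from absorbance versus fungicide-free control wells.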

Pyrenophora teres [5] = test: B-10. Pyrenophora teres in vitro cell test; type: cell-based; details: 144 h, 20 ppm of active ingredient, 6 days incubation, liquid culture, absorbance, read-out: efficacy (inhibition of fungal growth)
How it was run: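 Liquid-culture assay on a P. teres spore suspension with compounds added to the medium from DMSO solutions, final DMSO ≤1%. Mycelium growth read spectrometrically after 6 days. Inhibition calculated from absorbance against untreated control wells.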

Botrytis cinerea [6] = test: B-11. Botrytis cinerea in vitro cell test; type: cell-based; details: 144 h, 20 ppm of active ingredient, 6 days incubation, liquid culture, absorbance, read-out: efficacy (inhibition of fungal growth)
How it was run: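 B. cinerea spores were grown in liquid culture with compound (DMSO ≤1% final). Mycelium growth was measured spectrometrically after 6 days, with inhibition taken as absorbance relative to untreated control wells.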

Structure (SMILES)	pest or weed control at 500 ppm (Botrytis cinerea [1]) [%]	pest or weed control at 500 ppm (Pyrenophora teres [2]) [%]	pest or weed control at 500 ppm [3] [%]	inhibition at 20 ppm (Alternaria alternata) [%]	inhibition at 20 ppm [4] [%]	inhibition at 20 ppm (Septoria tritici) [%]	inhibition at 20 ppm (Pyrenophora teres [5]) [%]	inhibition at 20 ppm (Botrytis cinerea [6]) [%]
O=C(NCC(F)c1ccc(Cl)cc1Cl)c1c(Oc2cccc(C(F)(F)F)c2)nnc2c1COCC2 (stereo not shown) [I-126]	90 to 100	70 to 79	90 to 100	90 to 100	90 to 100	90 to 100	90 to 100	90 to 100
Cc1ccc(C(F)(F)CNC(=O)c2c(Oc3cccc(Cl)c3F)nnc3c2CCC3)c(Cl)c1 [I-143]	90 to 100	90 to 100	90 to 100	90 to 100	90 to 100	90 to 100	90 to 100	90 to 100
Cc1ccc(C(F)(F)CNC(=O)c2c(Oc3cccc(C4CC4)c3F)nnc3c2CCC3)c(C)c1 [I-134]	90 to 100	80 to 89	90 to 100	90 to 100	90 to 100	90 to 100	90 to 100	90 to 100
Cc1ccc(C(F)CNC(=O)c2c(Oc3cccc(Cl)c3F)nnc3c2CCCC3)c(C)c1 (stereo not shown) [I-136]	90 to 100	90 to 100	90 to 100	90 to 100	90 to 100	90 to 100	90 to 100	90 to 100
Cc1ccc(C(F)(F)CNC(=O)c2c(Oc3cccc(C(F)(F)F)c3)nnc3c2CCC3)c(Cl)c1 [I-142]	90 to 100	90 to 100	90 to 100	90 to 100	90 to 100	90 to 100	90 to 100	90 to 100
